Our source for the IC50 values is patent US12600728B2, “Interleukin-17 inhibitors” (priority 2020, dated 2026).

Read-outs that look alike come from different tables or passages of the source.

This test has as its target biotinylated human IL-17A / AF647-labeled human IL-17RA (Homo sapiens, UniProt Q16552). Kind of test: Human IL-17A×IL-17RA TR-FRET assay. It is filed as binding. The procedure:
Human IL-17A×IL-17RA TR-FRET Assay
Each compound concentration is tested in duplicate.
The final total assay volume is 10 μL.
Each plate contains test compounds in columns 1-22 and controls in columns 23 and 24. The neutral control (NC) contains all the assay components, but DMSO instead of test compound. […] The fluorescence values for emission at 615 nm and 665 nm are loaded to the evaluation software Helios.
From the activity data at each compound concentration, the IC50 values are obtained using the 4-parameter logistic function (“Hill-slope model”) of Helios.
A general note: TR-FRET usually uses a lanthanide donor and a delayed reading to cut background.

The mark [1] stands for this setting: TR-FRET, 5 nM IL-17A, 30 nM IL-17RA, read-out: IL17AA FRET/ IL17Rawt IC50.
Where [2] appears, read: TR-FRET, biotinylated human IL-17A 5 nM, AF647-labeled human IL-17RA 30 nM, read-out: IL17AA FRET/ IL17Rawt IC50.
The mark [3] stands for this setting: TR-FRET, 5 nM IL-17A, 30 nM IL-17RA, reference examples (pyridines), read-out: IL17AA FRET/ IL17RAwt IC50.
The mark [4] stands for this setting: IL17AA FRET/ IL17Rawt IC50, TR-FRET, biotinylated human IL-17A 5 nM, AF647-labeled human IL-17RA 30 nM.
[5] abbreviates: IL17AA FRET/ IL17Rawt IC50, TR-FRET, 5 nM IL-17A, 30 nM IL-17RA.

Chain of biotinylated human IL-17A / AF647-labeled human IL-17RA (Q16552 24-155): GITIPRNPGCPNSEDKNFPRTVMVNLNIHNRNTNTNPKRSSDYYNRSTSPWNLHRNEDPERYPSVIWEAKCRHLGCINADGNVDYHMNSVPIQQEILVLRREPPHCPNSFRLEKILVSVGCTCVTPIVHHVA

Regarding `Cc1cc[n+]([O-])c(C)c1-c1ccc(NC(=O)[C@@H](NC(=O)c2ccc3n2CCN(C)C3)C2CCC(F)CC2)cc1` (stereo partly drawn) [Example 214, 3-(4-((2S)-2-(4-fluorocyclohexyl)-2-(2-methyl-1,2,3,4-tetrahydropyrrolo[1,2-a]pyrazine-6-carboxamido)acetamido)phenyl)-2,4-dimethylpyridine 1-oxide], under setting [1], the IC50 turned out to be 0.69 µM.

For the compound `CCn1nccc1C(=O)NC(C(=O)Nc1ccc(-c2c(Cl)cc[n+]([O-])c2C)cc1)C1CCC(C(F)(F)F)CC1` [Example 20, 4-chloro-3-(4-((S)-2-(1-ethyl-1H-pyrazole-5-carboxamido)-2-((1r,4S)-4-(trifluoromethyl)cyclohexyl)acetamido)phenyl)-2-methylpyridine 1-oxi], under setting [2], the IC50 amounted to 0.68 µM. For `CCn1nccc1C(=O)N[C@H](C(=O)Nc1ccc(-c2c(C)ccnc2C)cc1)[C@H]1CC[C@H](C(F)(F)F)CC1` [compound 141, N-((S)-2-((4-(2,4-dimethylpyridin-3-yl)phenyl)amino)-2-oxo-1-((1r,4S)-4-(trifluoromethyl)cyclohexyl)ethyl)-1-ethyl-1H-pyrazole-5-carboxamide, reference compound], under setting [3], the IC50 was 2.63 µM. Take `COCCN1CCn2c(ccc2C(=O)N[C@H](C(=O)Nc2ccc(-c3c(C)cc[n+]([O-])c3C)cc2)C2CCCCC2)C1` [Example 135, (S)-3-(4-(2-cyclohexyl-2-(2-(2-methoxyethyl)-1,2,3,4-tetrahydropyrrolo[1,2-a]pyrazine-6-carboxamido)acetamido)phenyl)-2,4-dimethylpyridine 1-oxide]: under setting [2], the IC50 was found to be 0.451 µM.

Turning to `Cc1cc[n+]([O-])c(C)c1-c1ccc(NC(=O)[C@@H](NC(=O)c2ccc3n2CCNC3)C(C)c2ccccc2Cl)cc1` (stereo partly drawn) [Example 216, 3-(4-((2S)-3-(2-chlorophenyl)-2-(1,2,3,4-tetrahydropyrrolo[1,2-a]pyrazine-6-carboxamido)butanamido)phenyl)-2,4-dimethylpyridine 1-oxide], the IC50 under setting [1] is 0.796 µM. `Cc1cc[n+]([O-])cc1-c1ccc(NC(=O)[C@@H](NC(=O)c2ccnn2C)C2CCCCC2)cc1` [Example 81, (S)-3-(4-(2-cyclohexyl-2-(1-methyl-1H-pyrazole-5-carboxamido)acetamido)phenyl)-4-methylpyridine 1-oxide]: the IC50 under setting [2] turned out to be 3.74 µM.

Turning to `Cc1cc[n+]([O-])c(F)c1-c1ccc(NC(=O)[C@@H](NC(=O)c2ccnn2C)C2CCCCC2)cc1` [Example 114, (S)-3-(4-(2-cyclohexyl-2-(1-methyl-1H-pyrazole-5-carboxamido)acetamido)phenyl)-2-fluoro-4-methylpyridine 1-oxide], the IC50 under setting [2] was determined as 2.79 µM. Take `Cc1c(-c2ccc(NC(=O)[C@@H](NC(=O)c3ccc4n3CCN(C)C4)C3CCC(F)CC3)cc2)c(Cl)cc[n+]1[O-]` (mixture of isomers) [Example 129, 4-chloro-3-(4-((2S)-2-(4-fluorocyclohexyl)-2-(2-methyl-1,2,3,4-tetrahydropyrrolo[1,2-a]pyrazine-6-carboxamido)acetamido)phenyl)-2-methylpyridine 1-oxide]: under setting [2], the IC50 is 0.382 µM. In the case of `Cc1c(-c2ccc(NC(=O)[C@@H](NC(=O)c3ccnn3C)C3CCCCC3)c(Cl)c2)c(Cl)cc[n+]1[O-]` [Example 85, (S)-4-chloro-3-(3-chloro-4-(2-cyclohexyl-2-(1-methyl-1H-pyrazole-5-carboxamido)acetamido)phenyl)-2-methylpyridine 1-oxide], the IC50 under setting [2] was found to be 20.9 µM. Turning to `Cc1cc[n+]([O-])c(C)c1-c1ccc(NC(=O)C(NC(=O)c2ccc3n2CCN(C)C3)C(C)c2ccccc2Cl)cc1` (stereo not shown) [Example 212, 3-(4-(3-(2-chlorophenyl)-2-(2-methyl-1,2,3,4-tetrahydropyrrolo[1,2-a]pyrazine-6-carboxamido)butanamido)phenyl)-2,4-dimethylpyridine 1-oxide], the IC50 under setting [1] stood at 0.502 µM. On to `Cc1cc[n+]([O-])c(C)c1-c1ccc(NC(=O)C(NC(=O)c2ccc3n2CCNC3)C2CCC(C)CC2)cc1` [Example 220, 2,4-dimethyl-3-(4-((S)-2-((1r,4S)-4-methylcyclohexyl)-2-(1,2,3,4-tetrahydropyrrolo[1,2-a]pyrazine-6-carboxamido)acetamido)phenyl)pyridine 1-oxide], for which the IC50 under setting [1] was determined as 2.31 µM.

On to `Cc1cc[n+]([O-])c(C)c1-c1ccc(NC(=O)C(NC(=O)c2ccnn2C)C2CC(F)CC(F)C2)cc1` (stereo not shown) [Example 222, 3-(4-(2-(3,5-difluorocyclohexyl)-2-(1-methyl-1H-pyrazole-5-carboxamido)acetamido)phenyl)-2,4-dimethylpyridine 1-oxide], for which the IC50 under setting [1] was 7.29 µM. Take `Cc1cc[n+]([O-])c(C)c1-c1ccc(NC(=O)[C@@H](NC(=O)c2ccc3n2CCN(C)C3)C2CCCC2)cc1` [Example 153, (S)-3-(4-(2-cyclopentyl-2-(2-methyl-1,2,3,4-tetrahydropyrrolo[1,2-a]pyrazine-6-carboxamido)acetamido)phenyl)-2,4-dimethylpyridine 1-oxide]: under setting [1], the IC50 was found to be 0.798 µM. With `Cc1c[n+]([O-])cc(C)c1-c1ccc(NC(=O)[C@@H](NC(=O)c2ccnn2C2CC2)C2CCCCC2)cc1` [Example 98, (S)-4-(4-(2-cyclohexyl-2-(1-cyclopropyl-1H-pyrazole-5-carboxamido)acetamido)phenyl)-3,5-dimethylpyridine 1-oxide], the IC50 under setting [2] was found to be 1.4 µM.

`Cc1cc[n+]([O-])c(C)c1-c1ccc(NC(=O)[C@@H](NC(=O)c2ccc3n2CCN(C2CC2)C3)C2CCCCC2)cc1` [Example 131, (S)-3-(4-(2-cyclohexyl-2-(2-cyclopropyl-1,2,3,4-tetrahydropyrrolo[1,2-a]pyrazine-6-carboxamido)acetamido)phenyl)-2,4-dimethylpyridine 1-oxide]: the IC50 under setting [2] amounted to 0.102 µM.

Turning to `Cc1nocc1C(=O)N[C@H](C(=O)Nc1ccc(-c2c(C(F)(F)F)ccnc2C)cc1)[C@H]1CCCC(F)(F)C1` [compound 143, N-((S)-1-((S)-3,3-difluorocyclohexyl)-2-((4-(2-methyl-4-(trifluoromethyl)pyridin-3-yl)phenyl)amino)-2-oxoethyl)-3-methylisoxazole-4-carboxamide, reference compound], the IC50 under setting [3] came to 0.851 µM.

Turning to `Cc1c(-c2ccc(NC(=O)C(NC(=O)c3ccnn3C)C3CC4C(C3)C4(F)F)cc2)c(Cl)cc[n+]1[O-]` (single isomer, unassigned) [Example 54b], the IC50 under setting [4] amounted to 10.9 µM. `Cc1cc[n+]([O-])c(C)c1-c1ccc(NC(=O)[C@@H](NC(=O)c2conc2CN(C)C)C2CCCCC2)cc1` [Example 80, (S)-3-(4-(2-cyclohexyl-2-(3-((dimethylamino)methyl)isoxazole-4-carboxamido)acetamido)phenyl)-2,4-dimethylpyridine 1-oxide]: under setting [2], the IC50 was 4.45 µM. Take `Cc1c(-c2ccc(NC(=O)[C@@H](NC(=O)c3ccnn3C)C3CCC(F)(F)CC3)cc2)cc(Cl)c[n+]1[O-]` [Example 177, (S)-5-chloro-3-(4-(2-(4,4-difluorocyclohexyl)-2-(1-methyl-1H-pyrazole-5-carboxamido)acetamido)phenyl)-2-methylpyridine 1-oxide]: under setting [5], the IC50 came out at 2.11 µM.

Compound `Cc1c[n+]([O-])ccc1-c1ccc(NC(=O)[C@@H](NC(=O)c2ccnn2C)C2CCCCC2)cc1` [Example 111, (S)-4-(4-(2-cyclohexyl-2-(1-methyl-1H-pyrazole-5-carboxamido)acetamido)phenyl)-3-methylpyridine I-oxide] returned an IC50 under setting [4] of 4.78 µM. As to `Cc1cc[n+]([O-])c(C)c1-c1ccc(NC(=O)[C@@H](NC(=O)c2conc2CO)C2CCC(F)(F)CC2)cc1` [Example 155, (S)-3-(4-(2-(4,4-difluorocyclohexyl)-2-(3-(hydroxymethyl)isoxazole-4-carboxamido)acetamido)phenyl)-2,4-dimethylpyridine 1-oxide], the IC50 under setting [1] is 1.15 µM. Consider `Cc1c(-c2ccc(NC(=O)[C@@H](NC(=O)c3ccc4n3CCN(C)C4)[C@H]3CCCC(F)(F)C3)cc2)c(C(F)(F)F)cc[n+]1[O-]` [Example 166, 3-(4-((S)-2-((S)-3,3-difluorocyclohexyl)-2-(2-methyl-1,2,3,4-tetrahydropyrrolo[1,2-a]pyrazine-6-carboxamido)acetamido)phenyl)-2-methyl-4-(trifluoromethyl)pyridine 1-oxide], for which, under setting [1], the IC50 was 0.358 µM. On to `Cc1cc[n+]([O-])cc1-c1ccc(NC(=O)[C@@H](NC(=O)c2ccnn2C)C2CCCCC2)cc1F` [Example 168, (S)-3-(4-(2-cyclohexyl-2-(1-methyl-1H-pyrazole-5-carboxamido)acetamido)-2-fluorophenyl)-4-methylpyridine 1-oxide], for which, under setting [5], the IC50 is 1.47 µM. Consider `CCc1nocc1C(=O)N[C@H](C(=O)Nc1ccc(-c2c(C)ccnc2C)cc1)[C@H]1CC[C@H](C(F)(F)F)CC1` [compound 142, N-((S)-2-((4-(2,4-dimethylpyridin-3-yl)phenyl)amino)-2-oxo-1-((1r,4S)-4-(trifluoromethyl)cyclohexyl)ethyl)-3-ethylisoxazole-4-carboxamide, reference compound], for which the IC50 under setting [3] came to 4.38 µM. As for `Cc1cc[n+]([O-])c(C)c1-c1ccc(NC(=O)[C@@H](NC(=O)c2ccc3n2CCN(C2COC2)C3)[C@H]2CC[C@H](C(F)(F)F)CC2)cc1` [Example 132, 2,4-dimethyl-3-(4-((S)-2-(2-(oxetan-3-yl)-1,2,3,4-tetrahydropyrrolo[1,2-a]pyrazine-6-carboxamido)-2-((1r,4S)-4-(trifluoromethyl)cyclohexyl)acetamido)phenyl)pyridine 1-oxide], the IC50 under setting [2] was found to be 0.866 µM.
